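96-well plates; 48 h exposure; 5 concentrations. Endpoints by linear interpolation between flanking doses. Not reached: highest tested concentration assigned. Definition used: TGI = concentration required for complete inhibition of growth.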

Experimental findings from PubChem BioAssay (NCI) are described below.

Among the test systems are A498 renal; EKVX NSCLC; HS 578T breast; KM12 colon; MDA-MB-231 breast; NCI-H460 lung; OVCAR-4 ovarian; SK-MEL-28 melanoma; SK-MEL-5 melanoma; SN12C renal; SNB-75 CNS; SR leukemia; SW-620 colon; UACC-62 melanoma; BT-549 breast; SK-MEL-2 melanoma; UO-31 renal.
What all share (assay): NCI-60 cell line screen, 48 h

As for `CCN(CC)/[N+]([O-])=N/OS(=O)(=O)N(C)C`, the TGI in the assay on A498 renal, in the assay with EKVX NSCLC, in the assay with HS 578T breast, with KM12 colon, with MDA-MB-231 breast and with NCI-H460 lung was above 100 µM each time. Further, the TGI in the assay on OVCAR-4 ovarian, in the assay on SK-MEL-28 melanoma, with SK-MEL-5 melanoma, in the assay on SN12C renal, with SNB-75 CNS and in the assay with SR leukemia was above 100 µM in each case. Moreover, the TGI in the assay on SW-620 colon and with UACC-62 melanoma was above 100 µM each time.

For the compound `COc1ccc(OC)c(/C=C2/C(=O)N=C(NC(C)=O)N2C)c1`, the TGI in the assay on BT-549 breast, in the assay with EKVX NSCLC, with HS 578T breast, with KM12 colon, with MDA-MB-231 breast and with NCI-H460 lung was above 100 µM in each case. Moreover, the TGI in the assay with OVCAR-4 ovarian, in the assay with SK-MEL-2 melanoma, in the assay on SK-MEL-28 melanoma, in the assay with SK-MEL-5 melanoma, in the assay with SN12C renal and in the assay on SNB-75 CNS was above 100 µM in each case. The TGI with SW-620 colon, in the assay with UACC-62 melanoma and with UO-31 renal was above 100 µM throughout.

Take `CCN(CC)c1ccc(Cl)c2c1C(O)(C(C)C)C2(C)C` (stereo not given): the TGI with A498 renal stood at 35.7 µM; with KM12 colon it was 28.4 µM; in the assay with NCI-H460 lung it was 33.9 µM; in the assay with OVCAR-4 ovarian, 33.3 µM; in the assay on SK-MEL-2 melanoma it was 29.4 µM; in the assay with SK-MEL-28 melanoma it was 37.1 µM. The TGI amounted to 28.8 µM in the assay with SK-MEL-5 melanoma; 30.5 µM in the assay on SN12C renal; 32 µM in the assay on SNB-75 CNS; 32.6 µM in the assay on SW-620 colon; 32 µM with UO-31 renal.

On to `CC1(C)CC(=O)C(C(=O)Nc2cccs2)=C(O)C1`, for which the TGI in the assay with A498 renal is 88.9 µM; in the assay on EKVX NSCLC, above 100 µM; in the assay on KM12 colon, above 100 µM; in the assay with NCI-H460 lung it was above 100 µM; with OVCAR-4 ovarian, above 100 µM; in the assay on SK-MEL-2 melanoma, above 100 µM. Also, the TGI was above 100 µM with SK-MEL-28 melanoma; above 100 µM in the assay on SK-MEL-5 melanoma; above 100 µM in the assay with SN12C renal; 59.3 µM in the assay on SNB-75 CNS; above 100 µM in the assay on SR leukemia; above 100 µM in the assay with SW-620 colon. Besides, the TGI was above 100 µM with UACC-62 melanoma and 81.7 µM in the assay with UO-31 renal.

Turning to `c1ccc(C(NC2=NCCO2)C2CC2)cc1` (stereo not given), the TGI in the assay with A498 renal, with EKVX NSCLC, in the assay with HS 578T breast, in the assay on KM12 colon, in the assay on MDA-MB-231 breast and in the assay with NCI-H460 lung was above 100 µM in each case. In addition, the TGI in the assay on OVCAR-4 ovarian, in the assay with SK-MEL-2 melanoma, in the assay with SK-MEL-28 melanoma, in the assay on SK-MEL-5 melanoma, with SN12C renal and in the assay with SNB-75 CNS was above 100 µM in each case. For the same compound, the TGI in the assay with SR leukemia, with SW-620 colon, in the assay on UACC-62 melanoma and in the assay on UO-31 renal was above 100 µM in each case.

`COC(=O)N/N=c1\cc(C(=O)Nc2ccc(C)c(C)c2)oc2cc(O)ccc12`: the TGI with A498 renal, in the assay with EKVX NSCLC, with KM12 colon, in the assay with NCI-H460 lung, in the assay with OVCAR-4 ovarian and in the assay with SK-MEL-2 melanoma was above 100 µM throughout. Besides, the TGI in the assay with SK-MEL-28 melanoma, with SK-MEL-5 melanoma, in the assay on SN12C renal, in the assay with SNB-75 CNS, in the assay on SR leukemia and with SW-620 colon was above 100 µM in each case. For the same compound, the TGI in the assay with UACC-62 melanoma and in the assay on UO-31 renal was above 100 µM in each case.

Turning to `COC(=O)/C=C1\C(CO[Si](C)(C)C(C)(C)C)OC(n2ccc(=O)[nH]c2=O)C1O` (stereo not given), the TGI was 41.6 µM in the assay with A498 renal; above 80.5 µM in the assay on BT-549 breast; 59.8 µM in the assay with EKVX NSCLC; above 39.4 µM with KM12 colon; above 100 µM in the assay with MDA-MB-231 breast; 37.8 µM with NCI-H460 lung. Further, the TGI was above 100 µM with OVCAR-4 ovarian; 21.1 µM in the assay on SK-MEL-2 melanoma; 21.4 µM with SK-MEL-28 melanoma; 21.7 µM with SK-MEL-5 melanoma; above 54.4 µM in the assay with SN12C renal; above 100 µM in the assay with SNB-75 CNS. Further, the TGI with SR leukemia is 26.4 µM; with SW-620 colon, above 100 µM; in the assay with UACC-62 melanoma, 54.1 µM; in the assay on UO-31 renal, 29.6 µM.

As to `COc1cc(Nc2nc3cc(C)ccc3nc2-c2ccccc2)cc(OC)c1OC`, the TGI in the assay on A498 renal is above 100 µM; in the assay with EKVX NSCLC, above 100 µM; with KM12 colon, above 100 µM; in the assay on NCI-H460 lung it was 40 µM; with OVCAR-4 ovarian, above 100 µM; with SK-MEL-2 melanoma it was 45.3 µM. Moreover, the TGI was 55.1 µM with SK-MEL-28 melanoma; 35.1 µM with SK-MEL-5 melanoma; above 100 µM with SN12C renal; above 100 µM in the assay with SNB-75 CNS; 69.9 µM with SR leukemia; above 100 µM in the assay on SW-620 colon. The TGI turned out to be 63.6 µM with UACC-62 melanoma and 77.7 µM with UO-31 renal.

Regarding `CCOC(=O)c1cn(-c2ccc([N+](=O)[O-])cc2)c(=S)n2c1nc1ccccc12`, the TGI is 87.7 µM in the assay on A498 renal; above 100 µM in the assay with BT-549 breast; above 100 µM in the assay with EKVX NSCLC; above 100 µM in the assay with KM12 colon; above 100 µM in the assay with MDA-MB-231 breast; above 100 µM with NCI-H460 lung. Further, the TGI with OVCAR-4 ovarian is above 100 µM; in the assay with SK-MEL-2 melanoma, 76.7 µM; in the assay on SK-MEL-28 melanoma it was above 100 µM; in the assay on SK-MEL-5 melanoma, above 100 µM; in the assay on SN12C renal it was above 100 µM; in the assay on SNB-75 CNS it was above 100 µM. For the same compound, the TGI in the assay on SR leukemia was above 100 µM; with SW-620 colon, above 100 µM; in the assay with UACC-62 melanoma it was above 100 µM; with UO-31 renal, 4.64 µM.

On to `CCN(C(=O)N[C@@H](CC(C)C)C(=O)NCC(=O)OC)c1ccccc1`, for which the TGI in the assay with BT-549 breast, with EKVX NSCLC, in the assay with KM12 colon, with MDA-MB-231 breast, in the assay on NCI-H460 lung and in the assay on OVCAR-4 ovarian was above 100 µM in each case. The TGI in the assay on SK-MEL-2 melanoma, with SK-MEL-28 melanoma, with SK-MEL-5 melanoma, in the assay on SN12C renal, in the assay on SNB-75 CNS and with SR leukemia was above 100 µM each time. Also, the TGI is above 100 µM with SW-620 colon, 97.1 µM with UACC-62 melanoma and above 100 µM in the assay on UO-31 renal.
